Columns and labels:
[1] = tested on: patients presumed to have NASH; assay: Phase 2a study: liver volume and liver size by MRI; type: in vivo, human; settings: for Percent Change from Baseline in Liver: liver volume
Excerpt: A Phase 2a, randomized, double-blind, placebo-controlled study (ClinicalTrials.gov Identifier: NCT03823703) was begun to assess the efficacy of two dose levels of miricorilant versus placebo in reducing liver fat in patients who were presumed to have non-alcoholic steatohepatitis (NASH), that presumption based on blood tests and noninvasive measures. Written informed consent was obtained before initiating any study-mandated procedures. The full study was planned to enroll approximately 120 patients, randomized 1:1:1 to receive daily 900 mg miricorilant:600 mg miricorilant: matching placebo.
Patients were randomized in a 1:1:1 ratio to 600 mg miricorilant, 900 mg miricorilant, or placebo. Study drug was administered once daily, orally with 8 oz (240 mL) of water, along with food. Patients were instructed to take a total of 6 tablets at approximately the same time each day. Those in the 600 miricorilant group took 4 miricorilant tablets and 2 placebo tablets. Those in the 900 miricorilant group took 6 miricorilant tablets. Those in the placebo group took 6 placebo tablets. For the week 6 visit, patients were instructed to not take their daily study drug prior to the visit, but to bring their study drug to the site with them so that the study drug can be administered at the site.
MRI images showing the liver of a patient before (left-hand images) and after receiving daily 600 mg miricorilant (right-hand images) are presented in FIGS. 3A, 3B, and 3C.

[2] = Phase 2a study: body weight and plasma lipids; type: in vivo, human; settings: patients who responded to miricorilant treatment (FIG. 4)
Description: Measures of the effectiveness of miricorilant versus placebo in reducing liver fat were assessed by magnetic resonance imaging (MRI). The change from baseline MRI measurements relative to MRI measurements taken following a course of daily miricorilant or placebo administration were assessed by magnetic resonance imaging-proton density fat fraction (MRI-PDFF). Additionally, effects of miricorilant may be assessed by measuring one or more of the following, either by comparing change from baseline after one or more days of miricorilant administration, or by comparing measurements in patients administered miricorilant versus patients administered placebo: change in liver fat assessed by MRI-PDFF; change in AST, ALT, and gamma-glutamyl transferase (GGT); change in propeptide of type III collagen (pro-C3); change in enhanced liver fibrosis (ELF) score and its components (hyaluronic acid, tissue inhibitor of metalloproteinases-1 [TIMP-1], type III procollagen [PIIINP]); change in ACTH, serum cortisol, and serum aldosterone (pharmacodynamic assessments); change in Homeostatic Model Assessment of Insulin Resistance (HOMA-IR); change in absolute body weight; and other measurements. […] For patients with diabetes, change in HbA1c and change in fasting blood glucose may be measured to assess the effects of miricorilant. […]
Liver enzyme levels were measured in the patients.

[3] = tested on: C57BL/6J male mice; assay: AMLN diet NASH mouse model, drug provided in the AMLN diet; type: in vivo; settings: 60 mg/kg miricorilant in AMLN diet, 8 weeks; for Liver weight at termination of the study: vs diet-alone control (FIG. 8A)
Description: Two studies were conducted in C57BL/6J male mice (n=12 per group) maintained on a diet high in fat (40%), cholesterol (2%) and fructose (20%; referred to as the AMLN diet: see, e.g., Tolbol et al., World Journal of Gastroenterology, 24(2):179-194 (2018)) for 42 weeks before dosing with miricorilant was initiated. In the first study, all animals ate the AMLN diet, and received either placebo, 30 mg/kg miricorilant, or 60 mg/kg mifepristone once per day orally. […] All animals received the AMLN diet for 42 weeks prior to receiving their first dose of study drug or placebo. 4 weeks prior to receiving that first dose, a liver biopsy and histological examination of biopsy tissue was performed for each animal; 3 weeks prior to receiving that first dose, animals were randomized into three groups: control, miricorilant, or mifepristone. Only mice with fibrosis stage >=1 and steatosis score >=2 were allowed in the study and the groups were stratified according to liver col1a1 so that each study group had similar overall distributions of liver col1a1 among the mice. All animals continued on the study diet for the 3 weeks following randomization, at which time study drug or placebo administration began. All animals received their assigned drugs for 8 weeks (the 8 week in vivo study period). At 56 days (week 8) after initiation of drug administration, plasma ALT, AST, triglycerides, total cholesterol, and miricorilant levels were measured, and animals were sacrificed, liver necropsies were performed, liver histological ((NAFLD Activity Score, Fibrosis Stage, steatosis (scored using hematoxylin and eosin staining (HE)), col1a (scored using immunohistochemistry (IHC)) and Galectin-3 (IHC)) and liver biochemical measurements (including liver triglycerides and total cholesterol) were made, and liver and plasma samples were obtained for genetic ((e.g., RNA sequencing) and other analyses.
Thus, in these studies, the mice were subjected to a liver biopsy approximately 4 weeks before initiation of dosing with miricorilant and only mice with confirmed fibrosis (fibrosis stage ≥1) and steatosis (score ≥2) were entered into the study. At the end of the dosing period, blood samples were collected for determination of plasma ALT, AST, triglycerides, total cholesterol, and miricorilant. Liver samples were collected for analysis of triglycerides, total cholesterol, hydroxyproline, and histopathology. Body weight and food consumption were monitored throughout the study.
Type I collagen IHC staining Type I collagen (Southern Biotech, Cat. 1310-01) IHC were performed using standard procedures. Briefly, after antigen retrieval and blocking of endogenous peroxidase activity, slides were incubated with primary antibody. The primary antibody was detected using a polymeric HRP-linker antibody conjugate. Next, the primary antibody was visualized with DAB as chromogen. Finally, sections were counterstained in hematoxylin and cover-slipped.
Liver Galectin-3 content Galectin-3 (Biolegend, Cat. #125402) IHC was performed using standard procedures. Briefly, after antigen retrieval and blocking of endogenous peroxidase activity, slides were incubated with primary antibody. The primary antibody was detected using a linker secondary antibody followed by amplification using a polymeric HRP-linker antibody conjugate. Next, the primary antibody was visualized with DAB as chromogen. Finally, sections were counterstained in hematoxylin and cover-slipped.
Total liver col1a1 was evaluated from liver samples stained with anti-type I collagen (col1a1) (Southern Biotech, cat. 1310-01) at the end of the treatment period (typically using low power (20×) magnification). Galectin-3 content was evaluated from images of liver samples stained with anti-Galectin-3 (BioLegend, Cat. 125402) at the end of the treatment period (typically using low power (20×) magnification). Terminal relative (left) and total (right) liver type I Collagen (Col1a1) quantification was determined by morphometry. […]

With `O=c1[nH]c(=O)c(Cc2cccc(C(F)(F)F)c2)c([C@H]2CC[C@H](c3ccccc3)CC2)[nH]1` [miricorilant, (E)-6-(4-Phenylcyclohexyl)-5-(3-trifluoromethylbenzyl)-1H-pyrimidine-2,4-dione] the “Follow-Up Liver Volume” value ([1]; Patient 1 (responder), 900 mg, baseline 1606 mL) was 1303 mL, the “Follow-Up Liver Volume” value ([1]; Patient 2 (responder), 900 mg, baseline 1675 mL) was 1314 mL and the “Follow-Up Liver Volume” value ([1]; Patient 3 (responder), 900 mg, baseline 3857 mL) was 3113 mL. The “Follow-Up Liver Volume” value ([1]; Patient 4 (responder), 600 mg, baseline 1899 mL) was 1505 mL, the “Percent Change from Baseline in Liver” value ([1]; Patient 1 (responder), 900 mg) was −18.9% and the “Percent Change from Baseline in Liver” value ([1]; Patient 2 (responder), 900 mg) was −21.6%. The “Percent Change from Baseline in Liver” value ([1]; Patient 3 (responder), 900 mg) was −19.3%, the “Percent Change from Baseline in Liver” value ([1]; Patient 4 (responder), 600 mg) was −20.7% and the “Changes in body weight” value [2] was “No significant changes”. For the same compound, the “Relative and total liver Galectin-3 content” value ([3]; IHC morphometry, vs vehicle (FIG. 8C)) was “reduced”, the “Total liver type I collagen (col1a1) content” value ([3]; IHC morphometry, vs vehicle, significant as total weight (FIG. 8B)) was “reduced” and the Body weight ([3]; vs diet-alone control) was “significantly reduced”. For the same compound, the “Liver weight at termination of the study” value [3] was “reduced” and the “Liver weight at termination of the study” value ([3]; listed as Miricorilant) was “significantly reduced”.
